In patent US20070276025A1, “Indirubin-Type Compounds, Compositions, and Methods for Their Use” (priority 2003, published 2007):
Read-outs that look alike come from different tables or passages of the source.

Experiments:
[1] = molecular target: T1, AhR (Homo sapiens, UniProt P35869); assay: Yeast AhR reporter assay (β-galactosidase); settings: read-out: EC50 AhR (yeast); Table 4; * = inactive at the indicated highest concentration tested
[2] = molecular target: T2, AhR (Mus musculus, UniProt P30561); settings: read-out: EC50 AhR (hepatoma cell line); Table 4; EGFP at 24 hours
T2 sequence (P30561 1-848): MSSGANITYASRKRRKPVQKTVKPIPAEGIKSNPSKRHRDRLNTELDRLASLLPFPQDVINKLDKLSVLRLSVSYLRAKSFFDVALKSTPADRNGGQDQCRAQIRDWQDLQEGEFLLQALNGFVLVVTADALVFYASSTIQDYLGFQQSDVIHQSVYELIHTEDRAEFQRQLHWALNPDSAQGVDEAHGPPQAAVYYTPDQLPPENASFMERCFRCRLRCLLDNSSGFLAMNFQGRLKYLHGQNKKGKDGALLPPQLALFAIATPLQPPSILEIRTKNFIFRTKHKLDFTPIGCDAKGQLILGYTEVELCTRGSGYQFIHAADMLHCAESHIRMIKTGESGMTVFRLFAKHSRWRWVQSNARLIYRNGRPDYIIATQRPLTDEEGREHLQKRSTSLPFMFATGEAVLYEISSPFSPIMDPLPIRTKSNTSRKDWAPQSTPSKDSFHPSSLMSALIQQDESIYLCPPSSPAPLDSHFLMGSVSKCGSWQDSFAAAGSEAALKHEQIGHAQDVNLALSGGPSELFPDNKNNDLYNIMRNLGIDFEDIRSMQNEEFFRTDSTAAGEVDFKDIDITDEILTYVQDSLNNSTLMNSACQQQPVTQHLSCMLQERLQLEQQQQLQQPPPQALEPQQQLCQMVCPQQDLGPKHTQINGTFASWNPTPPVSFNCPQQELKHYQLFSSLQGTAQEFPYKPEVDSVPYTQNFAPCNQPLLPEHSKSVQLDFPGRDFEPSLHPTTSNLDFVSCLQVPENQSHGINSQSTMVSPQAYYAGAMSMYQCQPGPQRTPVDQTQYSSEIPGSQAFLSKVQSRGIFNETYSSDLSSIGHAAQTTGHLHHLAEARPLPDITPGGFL

[3] = molecular target: CDK5/p25 (Homo sapiens, UniProt Q00535); assay: CDK5/p25 kinase assay (histone H1, 15 μM ATP); assay type: biochemical, mammalian
[4] = molecular target: GSK-3α/β; assay: GSK-3α/β kinase assay (GS-1 peptide, 15 μM ATP); assay type: biochemical, porcine
[5] = molecular target: CDK1/cyclin B; assay: CDK1/cyclin B kinase assay (histone H1, 15 μM ATP); assay type: biochemical, starfish (Marthasterias glacialis)
[6] = molecular target: T1, AhR
[7] = Table 1, read-out: IC50 CDK5/p25
[8] = Table 5, read-out: IC50 CDK5/p25
[9] = Table 7, GSK-3, read-out: IC50exp
[10] = Table 4, read-out: IC50 CDK1/cycin B
[11] = Table 5, read-out: IC50 GSK-3α/β
[12] = Table 5, read-out: IC50 CDK1/cyclin B
[13] = Table 1, read-out: IC50 GSK-3 α/β
[14] = Table 1, read-out: IC50 CDK1/cyclin B
[15] = Table 6, read-out: GSK-3 (IC50 μM)
[16] = Table 6, read-out: CDK-5 (IC50 μM)

T1 sequence (P35869 11-848): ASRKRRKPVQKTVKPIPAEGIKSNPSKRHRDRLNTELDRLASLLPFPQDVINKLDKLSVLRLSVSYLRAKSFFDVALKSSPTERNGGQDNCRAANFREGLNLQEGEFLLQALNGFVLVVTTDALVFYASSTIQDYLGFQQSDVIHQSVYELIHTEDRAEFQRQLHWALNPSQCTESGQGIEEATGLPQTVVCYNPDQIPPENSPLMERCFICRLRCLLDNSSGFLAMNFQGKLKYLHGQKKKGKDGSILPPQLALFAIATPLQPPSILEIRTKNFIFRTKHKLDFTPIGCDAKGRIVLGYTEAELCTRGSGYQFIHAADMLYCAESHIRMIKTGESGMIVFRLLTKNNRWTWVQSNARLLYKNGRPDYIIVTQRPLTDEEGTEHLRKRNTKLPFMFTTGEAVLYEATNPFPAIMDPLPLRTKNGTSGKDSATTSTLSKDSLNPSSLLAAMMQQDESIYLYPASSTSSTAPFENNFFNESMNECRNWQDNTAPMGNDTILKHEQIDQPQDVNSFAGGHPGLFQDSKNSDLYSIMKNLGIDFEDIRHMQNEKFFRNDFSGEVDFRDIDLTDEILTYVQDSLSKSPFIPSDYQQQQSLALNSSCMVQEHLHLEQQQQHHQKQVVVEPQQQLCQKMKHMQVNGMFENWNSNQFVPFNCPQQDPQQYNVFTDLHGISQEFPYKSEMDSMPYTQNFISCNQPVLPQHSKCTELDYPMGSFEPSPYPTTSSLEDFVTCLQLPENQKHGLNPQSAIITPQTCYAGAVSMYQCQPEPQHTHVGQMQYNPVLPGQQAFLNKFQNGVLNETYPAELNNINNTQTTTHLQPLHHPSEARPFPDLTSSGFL
T1 sequence (P27540 whole entry partner): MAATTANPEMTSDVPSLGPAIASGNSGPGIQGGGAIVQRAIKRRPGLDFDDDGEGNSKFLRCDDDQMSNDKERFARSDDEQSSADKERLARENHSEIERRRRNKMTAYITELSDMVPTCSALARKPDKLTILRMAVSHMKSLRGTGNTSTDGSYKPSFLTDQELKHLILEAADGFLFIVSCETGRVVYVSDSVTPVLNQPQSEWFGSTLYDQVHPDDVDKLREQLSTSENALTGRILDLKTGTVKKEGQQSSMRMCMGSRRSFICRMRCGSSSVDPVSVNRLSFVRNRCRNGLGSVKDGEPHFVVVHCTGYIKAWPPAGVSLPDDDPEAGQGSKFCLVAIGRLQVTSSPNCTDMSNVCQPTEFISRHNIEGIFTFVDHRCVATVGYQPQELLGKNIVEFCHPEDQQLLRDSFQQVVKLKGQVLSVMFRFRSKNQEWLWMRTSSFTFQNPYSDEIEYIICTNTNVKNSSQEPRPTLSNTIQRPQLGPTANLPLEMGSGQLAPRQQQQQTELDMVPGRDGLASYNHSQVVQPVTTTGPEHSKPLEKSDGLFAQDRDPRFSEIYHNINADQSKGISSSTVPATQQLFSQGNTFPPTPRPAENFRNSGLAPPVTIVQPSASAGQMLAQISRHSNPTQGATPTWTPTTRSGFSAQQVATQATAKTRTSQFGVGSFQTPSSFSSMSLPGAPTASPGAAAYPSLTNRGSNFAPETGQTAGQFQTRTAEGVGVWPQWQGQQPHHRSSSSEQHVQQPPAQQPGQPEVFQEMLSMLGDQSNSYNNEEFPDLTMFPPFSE
CDK5/p25, sequence (Q00535 whole entry, species assumed): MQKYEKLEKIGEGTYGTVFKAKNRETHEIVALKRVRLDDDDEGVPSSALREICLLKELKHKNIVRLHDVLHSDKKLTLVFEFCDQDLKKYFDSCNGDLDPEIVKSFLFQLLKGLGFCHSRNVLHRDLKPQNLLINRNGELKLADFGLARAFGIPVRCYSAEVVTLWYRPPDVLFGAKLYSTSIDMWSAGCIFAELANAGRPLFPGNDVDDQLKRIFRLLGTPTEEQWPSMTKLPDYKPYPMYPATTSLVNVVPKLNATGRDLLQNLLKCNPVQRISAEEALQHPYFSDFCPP
CDK5/p25, sequence (Q15078 99-307 partner limits assumed, species assumed): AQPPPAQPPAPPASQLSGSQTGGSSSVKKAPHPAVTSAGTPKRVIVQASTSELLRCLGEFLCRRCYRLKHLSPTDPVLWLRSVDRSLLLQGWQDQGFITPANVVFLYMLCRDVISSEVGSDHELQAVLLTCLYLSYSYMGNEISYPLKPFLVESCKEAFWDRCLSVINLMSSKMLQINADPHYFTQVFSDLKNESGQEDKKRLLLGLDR

Molecule	EC50 [2] [nM]	IC50 [3, 8] [µM]	IC50 [4, 9] [µM]	IC50 [5, 10] [nM]	IC50 [4, 11] [µM]	IC50 [5, 12] [nM]	other results
O=C1Nc2cc(Br)ccc2C1=C1Nc2ccccc2C1=O [5a, 6-Bromoindirubin]	8	53					EC50 [1]: 20 nM; IC50 [3, 7]: 53 µM
O=C1Nc2ccc(Br)cc2/C1=C1/Nc2ccc(Br)cc2C1=O [compound 21, 5,5′-dibromo-indirubin, reference compound]	47		0.25	600000			IC50 ([4]; Table 4, read-out: IC50 GSK-3): 0.25 µM; EC50 [6]: > 200 nM
O=C1Nc2ccc(Cl)cc2/C1=C1/Nc2ccccc2C1=O [compound 17, 5-chloro-indirubin, reference compound]	52		0.05	280			IC50 ([4]; Table 4, read-out: IC50 GSK-3): 0.05 µM; EC50 [6]: 40 nM
O=C1Nc2ccccc2/C1=C1/Nc2ccccc2C1=O [5h, indirubin]	59						EC50 [6]: 6 nM
CC(=O)O/N=C1/C(=C2/C(=O)Nc3cc(I)ccc32)Nc2ccccc21 [8c, 6-Iodoindirubin-3′-acetoxime]		1.3			0.013	2200	
6-Chloroindirubin [5d]	7	> 100		> 100000		> 100000	EC50 [1]: 30 nM
CN1C(=O)/C(=C2\Nc3ccccc3C2=O)c2ccccc21 [12d, 1-Methylindirubin]	830	> 100		> 100000	> 100	> 100000	EC50 [1]: 6 nM; IC50 ([4]; Table 4, read-out: IC50 GSK-3): > 100 µM
O=C1Nc2ccccc2/C1=C1/Nc2ccc(Br)cc2C1=O [compound 20, 5′-bromo-indirubin, reference compound]	51		0.35	510			IC50 ([4]; Table 4, read-out: IC50 GSK-3): 0.35 µM; EC50 [6]: ≥ 100 nM
O=C1Nc2cccc(Cl)c2/C1=C1/Nc2ccccc2C1=O [compound 6, 4-Chloroindirubin]	310	10		10000	> 100	10000	EC50 [1]: > 100 nM; IC50 ([4]; Table 4, read-out: IC50 GSK-3): > 100 µM
O=C1Nc2cc(Cl)c(Cl)cc2/C1=C1/Nc2ccccc2C1=O [5e, 5,6-Dichloroindirubin]		60	0.03		0.03	45000	
O=C1Nc2ccccc2/C1=C1/Nc2cc(Br)ccc2C1=O [12a, 6′-Bromoindirubin]	1200	> 100	22	> 100000	22	> 100000	EC50 [1]: 100 nM; IC50 [4, 13]: 22 µM; IC50 ([4]; Table 4, read-out: IC50 GSK-3): 22 µM; IC50 [5, 14]: > 100000 nM; IC50 [3, 7]: > 100 µM
C=Cc1ccc2c(c1)NC(=O)C2=C1Nc2ccccc2C1=NOC(C)=O [8i, 6-vinylindirubin-3′-acetoxime]		0.4			0.065	1600	
O=C1Nc2ccc([N+](=O)[O-])cc2C1=C1Nc2ccccc2C1=O [5-Nitroindirubin, reference compound]			0.042				
CON=C1C(=C2C(=O)Nc3ccccc32)Nc2ccccc21 [9b, Indirubin-3′-methoxime]		0.4					
CC(=O)ON=C1C(=C2C(=O)Nc3cc(Br)c([N+](=O)[O-])cc32)Nc2ccccc21 [8g, 6-Bromo-5-nitroindirubin-3′-acetoxime]		31	0.006		0.006	11000	
CC(=O)ON=C1C(=C2C(=O)Nc3cc(Cl)c(Cl)cc32)Nc2ccccc21 [8e, 5,6Dichloroindirubin-3′-acetoxime]		0.1	0.004		0.004	30000	
O=C1Nc2cc(I)ccc2C1=C1Nc2ccccc2C1=NO [7c, 6-Iodoindirubin-3′-oxime]	440	0.3					EC50 [1]: > 100 nM
O=C1Nc2cc(Cl)ccc2C1=C1Nc2ccccc2C1=NO [7d, 6-Chloroindirubin-3′-oxime]	200	0.1	0.02	650	0.02	650	EC50 [1]: 4 nM; IC50 ([4]; Table 4, read-out: IC50 GSK-3): 0.02 µM
Cc1cc2c(cc1Br)NC(=O)C2=C1Nc2ccccc2C1=NO [7f, 6-Bromo-5-methylindirubin-3′-oxime]		0.13					

Molecule	EC50 [2] [nM]	IC50 [3, 8] [µM]	IC50 [4, 9] [µM]	IC50 [5, 10] [nM]	IC50 [4, 11] [µM]	IC50 [5, 12] [nM]	other results
Nc1ccc2c(c1)C(=C1Nc3ccccc3C1=O)C(=O)N2 [compound 23, 5-Aminoindirubin]							IC50 [4, 15]: 1.5 µM; IC50 [3]: 2.6 µM
Cc1cc2c(cc1Br)NC(=O)C2=C1Nc2ccccc2C1=O [5f, 6-Bromo-5-methylindirubin]		60	0.025		0.025	30000	
O=C1Nc2ccc(F)cc2C1=C1Nc2ccccc2C1=O [5-Fluoroindirubin, reference compound]			0.078				
O=C1Nc2cc(Br)ccc2/C1=C1/Nc2cc(Br)ccc2C1=O [12b, 6,6′-Dibromoindirubin]	> 10000	> 100	4.5	> 100000	4.5	> 100000	IC50 [4, 13]: 4.5 µM; IC50 ([4]; Table 4, read-out: IC50 GSK-3): 4.5 µM; IC50 ([4]; read-out: IC50 with GSK-3): 4.5 µM; IC50 [5, 14]: ≥ 100000 nM; IC50 [3, 7]: > 100 µM; IC50 ([3]; read-out: IC50 with CDK5): > 100 µM
Nc1ccc2c(c1)/C(=C1/Nc3ccccc3C1=NO)C(=O)N2 [compound 24, 5-Amino-3′-oxime indirubin]							IC50 [4, 15]: 0.75 µM; IC50 [3, 16]: 0.47 µM
O=C1Nc2cc(I)ccc2/C1=C1/Nc2ccccc2C1=O [5c, 6-Iodoindirubin]	17	5.3	0.055	1600	0.055	1600	EC50 [1]: 40 nM; IC50 ([4]; Table 4, read-out: IC50 GSK-3): 0.055 µM
CC(=O)ON=C1C(=C2C(=O)Nc3cc(Br)c(C)cc32)Nc2ccccc21 [8f, 6-Bromo-5-methylindirubin-3′-acetoxime]		30	0.007		0.007	31000	
O=C1Nc2ccc(I)cc2/C1=C1/Nc2ccccc2C1=O [compound 18, 5-iodo-indirubin, reference compound]				220			EC50 [6]: 30 nM
C=Cc1ccc2c(c1)NC(=O)/C2=C1\Nc2ccccc2C1=O [5i, 6-Vinylindirubin]		2.4			0.24	4200	
O=C1Nc2cc(F)ccc2C1=C1Nc2ccccc2C1=NO [7b, 6-Fluoroindirubin-3′-oxime]		0.15	0.13		0.13	320	
O=C1Nc2cc(Br)c([N+](=O)[O-])cc2C1=C1Nc2ccccc2C1=O [5g, 6-Bromo-5-nitroindirubin]		> 100	0.1		0.1	> 100000	
CN1C(=O)C(=C2Nc3ccccc3C2=O)c2ccc(Br)cc21 [12c, 6-Bromo-1-methylindirubin]	50	> 100		> 100000	> 100	> 100000	EC50 [1]: ≥ 100 nM; IC50 [4, 13]: > 100 µM; IC50 ([4]; Table 4, read-out: IC50 GSK-3): > 100 µM; IC50 [3, 7]: > 100 µM
O=C1Nc2cc(F)ccc2/C1=C1/Nc2ccccc2C1=O [5b, 6-Fluoroindirubin]		1					
Nc1cc2c(cc1Br)NC(=O)C2=C1Nc2ccccc2C1=O [compound 27, 6-Bromo-5-aminoindirubin]							IC50 [4, 15]: 0.054 µM; IC50 [3, 16]: 0.6 µM
C=Cc1ccc2c(c1)NC(=O)C2=C1Nc2ccccc2C1=NO [7i, 6-Vinylindirubin-3′-oxime]		0.42			0.06		
CC(=O)O/N=C1/C(=C2/C(=O)Nc3cc(Cl)ccc32)Nc2ccccc21 [8d, 6-Chloroindirubin-3′-acetoxime]		0.2	0.017		0.017	30000	
Nc1cc2c(cc1Br)NC(=O)/C2=C1\Nc2ccccc2C1=NO [compound 28, 6-Bromo-5-amino-3′-oxime indirubin]							IC50 [4, 15]: 0.056 µM; IC50 [3, 16]: 0.57 µM
O=C1Nc2cc(Br)c([N+](=O)[O-])cc2C1=C1Nc2ccccc2C1=NO [7g, 6-Bromo-5-nitroindirubin-3′-oxime]		0.15					
